Measurements reported in patent US11013730B1, “Composition comprising selenazol or thiazalone derivatives and silver and method of treatment therewith” (Thioredoxin Systems AB, priority 2014, dated 2021).
Converted amounts (≈) assume the structure as drawn. Read-outs that look alike come from different tables or passages of the source.

Tests used:
[1] = molecular target: T1, E. coli TrxR (Escherichia coli, UniProt P0A9P4); experiment: Kinetic parameters (substrate) with E. coli TrxR; format: biochemical
T1 sequence (P0A9P4 whole entry): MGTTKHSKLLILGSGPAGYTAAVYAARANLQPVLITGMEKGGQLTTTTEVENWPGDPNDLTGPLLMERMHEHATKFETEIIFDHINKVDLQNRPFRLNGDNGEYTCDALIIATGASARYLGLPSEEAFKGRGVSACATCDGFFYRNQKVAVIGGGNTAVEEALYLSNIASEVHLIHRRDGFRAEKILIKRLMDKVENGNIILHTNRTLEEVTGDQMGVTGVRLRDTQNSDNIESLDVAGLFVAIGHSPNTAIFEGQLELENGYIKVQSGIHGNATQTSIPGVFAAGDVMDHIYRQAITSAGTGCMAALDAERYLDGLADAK

[2] = molecular target: T2, Mammalian TrxR (Homo sapiens, UniProt Q16881); experiment: Kinetic parameters with mammalian TrxR; format: biochemical; settings: sulphur analogues
T2 sequence (Q16881 151-649 limits assumed): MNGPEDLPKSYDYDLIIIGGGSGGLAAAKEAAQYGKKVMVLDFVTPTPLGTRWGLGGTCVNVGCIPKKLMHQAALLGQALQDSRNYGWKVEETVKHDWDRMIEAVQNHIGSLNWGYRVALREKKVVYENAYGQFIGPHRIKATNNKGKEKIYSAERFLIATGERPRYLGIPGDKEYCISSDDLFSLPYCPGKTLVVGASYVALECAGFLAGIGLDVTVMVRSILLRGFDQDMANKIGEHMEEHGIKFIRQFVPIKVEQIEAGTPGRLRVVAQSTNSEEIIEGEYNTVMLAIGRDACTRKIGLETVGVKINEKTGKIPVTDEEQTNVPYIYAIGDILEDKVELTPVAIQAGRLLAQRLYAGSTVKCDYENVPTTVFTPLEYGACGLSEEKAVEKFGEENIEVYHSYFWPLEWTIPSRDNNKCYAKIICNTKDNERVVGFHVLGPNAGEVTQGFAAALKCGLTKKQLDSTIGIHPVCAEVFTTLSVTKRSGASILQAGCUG

[3] = molecular target: T1, E. coli TrxR; experiment: E. coli TrxR inhibition, thioredoxin dependent DTNB reduction assay; format: biochemical
Experimental: Further we examined the effect of ebselen in the reduction of disulfide by E. coli Trx and TrxR using both DTNB and insulin as substrates.
All the benzisoselenazol-3(2H)-one and bisbenzisoselenazol-3(2H)-one derivatives were tested as potential E. coli TrxR inhibitors by standard DTNB assay. […] The reactions were started by adding 1 mM DTNB to the mixture of 100 nM TrxR, 2 μM Trx, 240 μM NADPH, and different concentration of inhibitor (1-40 μM). […] The reactions were started by adding 6 nM TrxR at room temperature. Inhibition constants (Ki) for all the compounds were measured from Dixon plot, which plots 1/v versus […], I=Inhibitor concentration).

[4] = molecular target: T3, recombinant rat TrxR (Rattus norvegicus, UniProt O89049); experiment: Inhibition of mammalian (recombinant rat) TrxR
T3 sequence (O89049 1-499): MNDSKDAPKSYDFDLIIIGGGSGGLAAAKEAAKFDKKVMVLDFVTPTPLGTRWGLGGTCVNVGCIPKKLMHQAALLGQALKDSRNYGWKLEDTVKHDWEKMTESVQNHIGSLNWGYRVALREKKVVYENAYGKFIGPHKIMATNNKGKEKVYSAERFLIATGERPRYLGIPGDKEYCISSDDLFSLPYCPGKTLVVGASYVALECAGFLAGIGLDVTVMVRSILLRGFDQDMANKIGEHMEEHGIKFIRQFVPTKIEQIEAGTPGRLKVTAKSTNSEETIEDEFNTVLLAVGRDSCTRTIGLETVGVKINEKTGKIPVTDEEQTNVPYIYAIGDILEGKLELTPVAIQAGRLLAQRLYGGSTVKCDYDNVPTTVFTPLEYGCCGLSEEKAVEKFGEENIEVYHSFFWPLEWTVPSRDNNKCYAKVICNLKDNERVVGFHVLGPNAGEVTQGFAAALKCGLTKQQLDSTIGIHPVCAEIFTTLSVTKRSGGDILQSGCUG

[5] = tested on: HEK 293T cells; experiment: HEK 293T cells growth (cytotoxicity); format: cell-based
[6] = Glutathione peroxidase (GPx) activity of the compounds; format: biochemical; settings: for Relative GPx activity: EbSe 6 = 1
[7] = tested on: Gor DHB4 E. coli; experiment: Inhibition of bacterial growth (MIC), Gor DHB4 E. coli; settings: for MIC: Escherichia coli, DHB4E.COLI, read-out: MIC for Gor DHB4 E. coli
From the text: (§1) Here E. coli DHB4 strains wt, gshA^−, gor^−, oxyR^− were used as the model to test the antibiotics activity of these ebselen derivatives.

[8] = tested on: wild type DHB4 E. coli; experiment: Inhibition of bacterial growth (MIC), wild type DHB4 E. coli; settings: for MIC: Escherichia coli, DHB4E.COLI, read-out: MIC for wild type DHB4 E. coli
From the text: as §1

[9] = tested on: gshA^− DHB4 E. coli; experiment: Inhibition of bacterial growth (MIC), gshA^− DHB4 E. coli; settings: for MIC: Escherichia coli, read-out: MIC for gshA^− DHB4 E. coli; for sensitivity of gshA^− / gor^− strains compared with wild type: E. coli strains wt
From the text: as §1

[10] = tested on: H. pylori strains; experiment: MIC against H. pylori strains; settings: Helicobacter pylori
[11] = tested on: E. coli; format: cell-based, Escherichia coli; settings: 16 h
[12] = DTNB assay, 100 nM TrxR, 2 μM Trx, 240 μM NADPH, 1 mM DTNB, read-out: IC50 for E. coli TrxR
[13] = Dixon plot, 6 nM TrxR, Trx 1, 2 or 4 μM, read-out: Ki for E. coli TrxR
[14] = Homo sapiens, HEK-293T; read-out: IG50 for HEK 293T
[15] = Dixon plot, 6 nM TrxR, Trx 1, 2 or 4 μM
[16] = Homo sapiens, HEK-293T, read-out: IG50 for HEK 293T

Row | Compound | IC50 [3, 12] [µM] | Ki [3, 13] [nM] | IC50 [4] [µM] | IC50 [5, 14] [µM] | Relative GPx activity [6] | MIC [7] [µM] | MIC [8] [µM] | MIC [9] [µM] | other results
1 | O=C(Nc1ccccc1)c1ccccc1SSc1ccccc1C(=O)Nc1ccccc1 [(EbS)2] | – | – | – | – | – | – | – | – | Km [1]: 27.6 µM; kcat, E. coli TrxR [1]: 100 min⁻¹; Km [2]: 47 µM; kcat, mammalian TrxR [2]: 1500 min⁻¹
2 | NCCn1[se]c2ccccc2c1=O [EbSe5] | 2.12 | 35 | – | – | – | – | – | – | –
3 | O=c1c2cccnc2[se]n1-c1ccc(Cl)cc1 [EbSe19] | 3 | 500 | – | – | – | – | – | – | –
4 | O=c1[nH][se]c2ccccc12 [EbSe 2] | 15 | 1000 | > 10 | 95 | 0.97 | – | – | – | Ki for E. coli TrxR [3, 15]: Not detected
5 | Cn1[se]c2ccccc2c1=O [EbSe 3] | 15 | – | > 10 | 100 | 1.2 | – | – | – | Ki for E. coli TrxR [3, 15]: Not detected
6 | CC(C)(C)n1[se]c2ccccc2c1=O [EbSe 4] | 15 | – | > 10 | 75 | 1.1 | – | – | – | inhibition of mammalian TrxR (in words) [4]: some activity; Ki for E. coli TrxR [3, 15]: Not detected
7 | O=c1c2ccccc2[se]n1-c1ccc(Cl)cc1 [EbSe 7] | 7 | 550 | > 10 | 120 | 0.64 | 23 (≈ 7.1 µg/mL) | 34 (≈ 10.5 µg/mL) | 20 (≈ 6.17 µg/mL) | –
8 | Cc1cc(Cl)ccc1-n1[se]c2ccccc2c1=O [EbSe 8] | 6 | 250 | > 10 | 80 | 0.67 | 24 (≈ 7.74 µg/mL) | 47 (≈ 15.2 µg/mL) | 13 (≈ 4.19 µg/mL) | –
9 | O=C(O)c1ccccc1-n1[se]c2ccccc2c1=O [EbSe 9] | 7.5 | 1200 | 0.8 | > 160 | 2.1 | 31 (≈ 9.86 µg/mL) | 49 (≈ 15.6 µg/mL) | 24 (≈ 7.64 µg/mL) | –
10 | O=C(O)c1ccc(-n2[se]c3ccccc3c2=O)cc1 [EbSe 10] | 15 | – | > 10 | 55 | 1.8 | – | – | – | Ki for E. coli TrxR [3, 15]: Not detected
11 | O=c1c2ccccc2[se]n1-c1ccc(Cl)cc1 [EbSe 11] | – | – | – | – | 0.87 | – | – | – | MIC for Gor DHB4 E. coli [7]: No Inhibition; IC50 ([5]; read-out: IG50 for HEK 293T): > 160 µM; IC50 [3]: > 40 µM; Ki [3]: 300 nM; Ki for E. coli TrxR [3, 15]: Not detected; MIC for wild type DHB4 E. coli [8]: No Inhibition; MIC for gshA^− DHB4 E. coli [9]: No Inhibition
12 | O=c1c2ccccc2[se]n1-c1ccccc1[N+](=O)[O-] [EbSe 12] | 3 | 250 | > 10 | – | 0.93 | – | – | – | MIC for Gor DHB4 E. coli [7]: No Inhibition; IC50 [5, 16]: 80 µM; MIC for wild type DHB4 E. coli [8]: No Inhibition; MIC for gshA^− DHB4 E. coli [9]: No Inhibition; sensitivity of gshA^− / gor^− strains compared with wild type [9]: same sensitivity; GPx activity (in words) [6]: no GPx activity
13 | O=c1c2ccccc2[se]n1-c1ccncc1 [EbSe 13] | 3 | 1500 | > 10 | 60 | 1.4 | 24 (≈ 6.6 µg/mL) | 45 (≈ 12.4 µg/mL) | 21 (≈ 5.78 µg/mL) | –
14 | O=c1c2ccccc2[se]n1CCn1[se]c2ccccc2c1=O [EbSe 14] | 2 | 50 | – | – | – | 19 (≈ 8.02 µg/mL) | 23 (≈ 9.71 µg/mL) | 23 (≈ 9.71 µg/mL) | sensitivity of gshA^− / gor^− strains compared with wild type [9]: same sensitivity
15 | O=c1c2ccccc2[se]n1CCCn1[se]c2ccccc2c1=O [EbSe 15] | 2.1 | – | – | 9.5 | – | – | – | – | Ki [3]: 38 nM
16 | O=c1c2ccccc2[se]n1CCCCCCn1[se]c2ccccc2c1=O [EbSe 16] | 2.25 | 25 | – | – | – | 35 (≈ 16.7 µg/mL) | 20 (≈ 9.57 µg/mL) | 20 (≈ 9.57 µg/mL) | IC50 [5, 16]: 9.2 µM; Ki ([3]; for the selenium released stock, read-out: Ki for E. coli TrxR, selenium released stock): 10 nM; sensitivity of gshA^− / gor^− strains compared with wild type [9]: same sensitivity
17 | CCOC(=O)c1cccnc1[Se]Nc1ccc(Cl)cc1 [EbSe 22] | > 10 | 7500 | – | – | – | – | – | – | –
18 | CCOC(=O)c1cccnc1[Se]Nc1ccc(Cl)cn1 [compound 2] | > 10 | 7500 | – | – | – | – | – | – | MIC for Gor DHB4 E. coli [7]: No Inhibition; IC50 [5, 16]: 60 µM; MIC for wild type DHB4 E. coli [8]: No Inhibition; MIC for gshA^− DHB4 E. coli [9]: No Inhibition
19 | Cc1ncc([N+](=O)[O-])n1CCO [metronidazole] | – | – | – | – | – | – | – | – | MIC [10]: 6.25 µg/mL (≈ 36.5 µM); MIC ([10]; NCTC11637): 0.78 µg/mL (≈ 4.56 µM)
20 | O=[N+]([O-])[O-].[Ag+] [silver, Silver nitrate] | – | – | – | – | – | – | – | – | MIC, silver alone [11]: about 42 μM; MIC for silver ([11]; in the presence of 2 μM ebselen): 8.4 µM; silver concentration that inhibited E. coli growth ([11]; in the presence of 8 μM ebselen): 1 µM
